In patent US20260097047A1, “Small molecule inhibitors of the ribosome biogenesis factor NVL2” (Board of Regents, The University of Texas System, priority 2023, published 2026):
pIC50: −log10 of the molar value. “Also recorded” adds a separate entry of the source.

What was measured:
p53 and p21 = p53 and p21 protein levels in HCT116 cells; assay type: cell-based, human
Description: Inhibition of 60S ribosome biogenesis is known to induce the stability and upregulation of p53, which could serve as a potential pharmacodynamics marker for MM017 in HCT116 cells. […] We used PRISM (Broad Institute) to evaluate the selectivity of MM017 across 902 cancer cell lines and then correlated this selectivity to 1,215 clinical and pre-clinical compounds in the PRISM database. […] These observations indicate that oxaliplatin and carmofur, like MM017, target ribosome biogenesis.

NVL = molecular target: T1, NVL (Homo sapiens, UniProt O15381); assay: Viability of NVL^AID/AID cells relying on ectopic human NVL (Ph-IAA); assay type: cell-based; parameters: expressed in transfected cells; host or cells: HCT116 NVL^AID/AID cells (viral infection; 'mock infected' control); conditions: endogenous NVL degraded with Ph-IAA; read-out: IC50, cells expressing ectopic human NVL
T1 sequence (O15381 1-856): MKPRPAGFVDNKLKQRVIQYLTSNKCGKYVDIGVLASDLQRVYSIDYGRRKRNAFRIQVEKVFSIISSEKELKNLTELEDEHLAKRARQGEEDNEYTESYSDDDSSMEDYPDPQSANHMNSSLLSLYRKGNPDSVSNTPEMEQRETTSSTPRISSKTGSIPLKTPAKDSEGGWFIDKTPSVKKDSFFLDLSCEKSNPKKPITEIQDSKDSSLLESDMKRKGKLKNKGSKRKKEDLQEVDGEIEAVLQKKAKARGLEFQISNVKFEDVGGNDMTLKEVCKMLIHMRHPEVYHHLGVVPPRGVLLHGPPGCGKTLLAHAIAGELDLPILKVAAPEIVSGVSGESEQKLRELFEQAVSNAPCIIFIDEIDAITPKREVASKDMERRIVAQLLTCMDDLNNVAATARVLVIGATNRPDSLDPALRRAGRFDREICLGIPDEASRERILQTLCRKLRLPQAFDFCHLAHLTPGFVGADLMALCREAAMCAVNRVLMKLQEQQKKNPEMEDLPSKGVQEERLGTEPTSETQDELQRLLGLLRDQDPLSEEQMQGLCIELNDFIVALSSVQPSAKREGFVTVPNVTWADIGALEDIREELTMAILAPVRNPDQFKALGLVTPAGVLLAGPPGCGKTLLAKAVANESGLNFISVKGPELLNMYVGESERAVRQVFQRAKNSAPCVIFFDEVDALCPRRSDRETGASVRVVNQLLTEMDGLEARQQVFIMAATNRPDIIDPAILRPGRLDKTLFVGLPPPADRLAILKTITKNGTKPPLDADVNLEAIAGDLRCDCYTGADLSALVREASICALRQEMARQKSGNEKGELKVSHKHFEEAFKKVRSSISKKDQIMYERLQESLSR
Description: Next, we investigated whether inhibitors of NVL could inhibit the growth of cell line derived xenografts tumors in mice, and whether systemic inhibition of NVL leads to specific toxicities. […] To test the potency of MM927 against mouse NVL within the same cell type, we ectopically expressed either human or mouse NVL in NVL^AID/AID cells. Treatment with Ph-IAA degrades the endogenous protein so that the cells must rely solely on ectopically expressed NVL. In the mock infected cells, degrading NVL^AID/AID by the addition of Ph-IAA reduced cell viability as expected, and the viability was completely rescued by expression of either ectopic mouse or human NVL.

HCT116 NVL^R403W tumors = assay: Efficacy study: HCT116 NVL^R403W xenografts; assay type: in vivo, mouse; conditions: 35 mg/kg IP twice a day for 21 days
Method: Having established the kinetics of MM927 mediated NVL inhibition in xenograft tumors, we administered 35 mg/kg MM927 IP twice a day for 21 days to mice harboring tumors derived from either HCT116 NVL wild type or NVL^R403W cells. […] Taken together, we concluded that the potent, and bioavailable analog MM927 reduces tumor growth in mouse xenografts by inhibiting NVL without toxicity.
Efficacy study: Five million parental HCT116 cells or HCT116 NVL^R403W in a volume of 0.1 mL were implanted in the right flank. Tumor volumes were measured every 2 to 4 days with calipers. Volume is calculated as [(L*W^2)*3.14]/6. When volumes reached ˜110 mm^3, treatment was started with 35 mg/kg MM927 or vehicle control (0.2 mL/mouse) twice a day for 21 days. Mice were euthanized at the end of the 21-day treatment period or when any tumor reached 2 cm in its largest diameter, in agreement with the approved animal protocol. At the end of treatment, blood and tumor tissue were collected for pharmacokinetic analysis, measurement of complete blood counts, and blood chemistry measurements as described. Serum alanine transaminase and blood urea nitrogen were analyzed using VITROS MicroSlide technology.

SMILES: COCCN1C(=O)c2ccccc2Sc2cc(NC(=O)c3ccoc3)ccc21 [MM017]
- p53 levels in parental HCT116 cells (p53 and p21): upregulates p53 levels; also recorded: increase in p53 at 6 hours post treatment; also recorded: dose-dependent increase in the levels of p53
- p53 and p21 abundance in NVL^P307T cells (p53 and p21; NVL^P307T): no changes in the abundance of either protein

SMILES: CC#CCN1C(=O)c2ccc(F)cc2Sc2cc(NC(=O)c3ccc4oc(=O)n(C)c4c3)ccc21 [MM927, N-(10-(But-2-yn-1-yl)-3-fluoro-11-oxo-10,11-dihydrodibenzo[b,f][1,4]thiazepin-7-yl)-3-methyl-2-oxo-2,3-dihydrobenzo[d]oxazole-5-carboxamide]
- pIC50 (NVL): 7.29
- endpoint tumor burden, NVL^R403W (HCT116 NVL^R403W tumors): no effect
- rate of growth of NVL^R403W tumors (HCT116 NVL^R403W tumors): no significant impact
